Data reported in patent US20190233409A1, “SUBSTITUTED 2,3,4,5-TETRAHYDRO-1H-PYRIDO[4,3-B]INDOLES, METHODS FOR USE THEREOF” (priority 2017, published 2019).

Key:
BALB/c male mice [1] = test: Mice Behavior an Elevated Cross Shaped Labyrinth; format: in vivo; conditions: preference index for open sections, number of defecations
Text: The length of each section in the labyrinth is 30 cm, the width is 5 cm, the height of the walls is 15 cm. Two opposite sections are closed by transparent walls on the sides and on the butt ends, the other two sections are lit and opened. A mouse was placed in the center of the labyrinth and for the next five minutes the number of entries the open and closed sections and the time spent in each type of section was registered. […] The animals usually avoid the open sections (the preference index is between 0.2 and 0.3).

SHK male mice = test: Recognition of New Objects by Mice Under Scopolamine and MK-801; format: in vivo; conditions: scopolamine 1 mg/kg and MK-801 0.2 mg/kg
Description: The experiments were carried out in a closed cross shaped labyrinth which consisted of 4 peripheral sections connected with the central chamber via a 7×7 cm hole. The labyrinth was made of black plastic and its sections were of 14×14×14 cm size. The top cover of the labyrinth was transparent.
A mouse was placed in the central section of the labyrinth and allowed to investigate the environment. A mouse was considered to have entered a section once all of its four paws were inside the chamber. A test was considered to be completed when the mouse had moved 12 times between the sections, having made a total of 13 visits. The floor of the labyrinth was cleaned after each animal.
With each mouse the test was carried out twice with 1 hour interval.
During the first test, each section of the labyrinth contained a circular plastic cup of 3 cm height and 7 cm diameter. During the second test the cover in each of the two opposing sections was replaced by a conical glass bulb of 7 cm height and 4 cm across the bottom. The time that the mice spent in each section of the labyrinth was registered and the index of new object recognition was calculated as the ratio of the time spent in the sections with the bulbs to the time spent in all sections of the labyrinth. If no preference is given to the sections with new objects the index is 0.5.
When new objects appear the mice spend more time in the section containing them that results in an increased recognition index. Scopolamine (1 mg/kg) and MK-801 (0.2 mg/kg) disturbed learning (memory) that leads to lowering of the recognition index.

[2] = tested on: calcium canals regulated by the intracellular calcium depot; test: Histamine-induced calcium stream in SK-N-SH cells, Phase 2 (lowering of intracellular calcium concentration); format: cell-based; conditions: Homo sapiens, 10 μM histamine, Fura 2 AM, Phase 2: discharge of intraplasmatic calcium
BALB/c male mice [3] = test: Passive Avoidance of Mice in a Shuttle Chamber, scopolamine or MK-801 (Example 8); format: in vivo; conditions: scopolamine 0.3 mg/kg or MK-801 0.1 mg/kg
Description: Example 7. […] A shuttle chamber (Ugo Basile, Italy) consisted of two sections was used. […] The sections were connected via a hole which could be shut with a vertical door. The floor was made of transverse metal bars on which DC current impulses could be fed. Experiments were carried out on aged male mice of line BALB/c weighing 20-24 grams.
On the first day of the experiment 30 minutes before training the mice were injected intraintestinally with physiological solution of scopolamine (0.3 mg/kg) or scopolamine in combination with antagonists of 5-HT6 receptors 1.2.1(2)HCl, 1.2.1(4)HCl or 1.2.1(5)HCl. Each group consisted of at least 8 animals. The animals were placed in the light section, and the latent period of the first entry into the dark chamber was registered. Then the vertical door was closed and the animal was punished by 0.6 mA DC current for 3 seconds. After that the animal was carried back to its living cell. In 22-24 hours the same animal was placed in the light section of the shuttle chamber once again and the latent period before its entry into the dark section, the total time of its stay in the light section and the number of entries into the dark section were registered. Each observation lasted for 5 minutes.
The experiment was carried out in the same way as in example 7. On the first day 30 minutes before training the mice were injected intra-intestinally with a physiological solution of scopolamine (0.3 mg/kg) or MK-801(0.1 mg/kg).

BALB/c male mice [4] = test: Training Mice in the Morris Water labyrinth, scopolamine; format: in vivo; conditions: scopolamine 0.6 mg/kg; 1.2.1(5)HCl 0.1 mg/kg, 1.2.1(1)HCl 1 mg/kg, tacrine 3 mg/kg
Description: A circular pool of 100 cm diameter and of 30 cm sides was used. It was filled with water at 20-22° C. A circular ceramic platform of 14 cm height was placed in the pool. The behavior of the animals was registered using an automated computer video system in addition with software package of movement analyzer Any-maze (Stoelting Colo., US). The experiments were carried out on aged male mice of BALB/c line weighing 20-24 grams. Before the experiments mice fit for learning were selected. This was done by placing the platform 1 cm above the water level and putting an animal on the platform for 20 seconds. Then the mouse was put in the water on the opposite side of the pool and allowed to find the platform and climb onto it for 60 seconds, where it was left for additional 20 seconds. After that the mouse was repeatedly immersed in the water on the opposite side of the pool and allowed to search for the platform. If it failed in finding the platform within 60 seconds the experimentator helped it to find the platform and climb onto it. If the mice couldn't find the platform itself in two consecutive attempts it was excluded from the experiment. During the next two days the platform was placed 0.5 centimeters lower the water level. Every day the mice were given four attempts for finding the platform within 60 seconds. The time interval between the attempts was 20 seconds, during which the mice stayed on the platform. Every day before the first attempt the mice was placed on the platform for 20 seconds. The time needed for finding and climbing the platform was registered. The animals were sunk in water in two different places on the side of the pool opposite to the platform. […] The animals of the control group were injected with physiological solution. At least 8 animals were used in each group. On the third day the platform was removed and each animal was placed in the pool once for a period of 60 seconds. The time each mouse spent in the area where the platform had been located during the previous days was registered. […]

BALB/c male mice [5] = test: Passive Avoidance of Mice in a Shuttle Chamber, memory disturbed by scopolamine (Example 7); format: in vivo; conditions: scopolamine 0.3 mg/kg, injected 30 minutes before training
Description: Example 7. […] A shuttle chamber (Ugo Basile, Italy) consisted of two sections was used. […] The sections were connected via a hole which could be shut with a vertical door. The floor was made of transverse metal bars on which DC current impulses could be fed. Experiments were carried out on aged male mice of line BALB/c weighing 20-24 grams. […] Each group consisted of at least 8 animals. The animals were placed in the light section, and the latent period of the first entry into the dark chamber was registered. Then the vertical door was closed and the animal was punished by 0.6 mA DC current for 3 seconds. After that the animal was carried back to its living cell. In 22-24 hours the same animal was placed in the light section of the shuttle chamber once again and the latent period before its entry into the dark section, the total time of its stay in the light section and the number of entries into the dark section were registered. Each observation lasted for 5 minutes. The experiment was carried out during the day time in an isolated laboratory using white noise at a level of about 70 decibel above the human hearing threshold. Scopolamine causes the disturbance of training (memory loss) which results in […]. The fact that 5-HT6 receptor antagonists can improve the learning ability that has been disturbed by scopolamine is regarded as evidence for their nootropic effect.

Row | SMILES | tranquilizing action (elevated cross shaped labyrinth, figure 19-21) (BALB/c male mice [1]) | nootropic action (new object recognition, FIG. 13-14) (SHK male mice) | EC50 [2] | nootropic action (passive avoidance, FIGS. 5-10) (BALB/c male mice [3]) | improvement of mice's training (Morris water labyrinth, FIGS. 11-12) (BALB/c male mice [4]) | nootropic action (passive avoidance, FIGS. 2-4) (BALB/c male mice [5])
1 | Cc1ccc2c(c1)c1c(n2CCc2ccccc2)CCN(C)C1.Cl [1.2.1(1)HCl, 2,8-dimethyl-5-(2-phenylethyl)-2,3,4,5-tetrahydro-1H-pyrido[4,3-b]indole hydrochloride] | exhibit a tranquilizing action, which is the most prominent | nootropic action, the level of which is the most prominent | 0.15 µM | highest activity | statistically significant improvement of mice's training | 
2 | Cc1ccc2c(c1)c1c(n2CCc2ccc(C)nc2)CCN(C)C1.Cl [1.2.1(5)HCl, 2,8-dimethyl-5-[2-(6-methylpyridin-3-yl)ethyl]-2,3,4,5-tetrahydro-1H-pyrido[4,3-b]indole hydrochloride] | exhibit a tranquilizing action | nootropic action | 1.58 µM | exhibit a nootropic action | statistically significant improvement of mice's training | exhibit a nootropic action
3 | O=C1CC2(CCCC2)CC(=O)N1CCCCN1CCN(c2ncccn2)CC1 [Buspiron] | exhibit a tranquilizing action |  |  |  |  | 
4 | Nc1c2c(nc3ccccc13)CCCC2 [tacrine] |  |  |  |  | statistically significant improvement of mice's training | 
